This note sets out measurements from publication PMC11617094 (Molecular Biology of the Cell, 2024).

For data set [1], the target named is T1, Alp7A (Bacillus subtilis, UniProt C7F6X5).
T1 construct: untagged native Alp7A encoded by plasmid pLS20, codon-optimised gene in pET28a (NcoI/HindIII), expressed in E. coli C43, purified by a polymerization cycle and gel filtration; forms two-stranded filaments
T1 sequence (C7F6X5 1-391): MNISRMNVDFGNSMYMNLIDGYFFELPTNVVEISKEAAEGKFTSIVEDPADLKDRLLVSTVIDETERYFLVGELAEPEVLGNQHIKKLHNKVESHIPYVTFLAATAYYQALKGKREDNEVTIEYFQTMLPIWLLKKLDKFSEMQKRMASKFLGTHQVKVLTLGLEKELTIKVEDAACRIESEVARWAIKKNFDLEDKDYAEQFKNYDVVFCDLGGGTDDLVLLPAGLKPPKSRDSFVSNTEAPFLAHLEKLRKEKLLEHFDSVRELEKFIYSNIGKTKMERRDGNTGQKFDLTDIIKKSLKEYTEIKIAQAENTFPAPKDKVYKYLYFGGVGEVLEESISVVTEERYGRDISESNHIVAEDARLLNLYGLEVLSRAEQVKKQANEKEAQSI
In words: EnzChek phosphate release (ATPase on polymerization). It is filed as biochemical. Conditions: 10 mM ATP/Mg, 25 mM Tris pH 7.5, 100 mM KCl, 1 mM MgCl2, 1 mM DTT; no Alp7R.

Data set [2] deals with T2, Alp7A (Bacillus subtilis, UniProt C7F6X5, E180A).
T2 construct: untagged native Alp7A encoded by plasmid pLS20, codon-optimised gene in pET28a (NcoI/HindIII), expressed in E. coli C43, purified by a polymerization cycle and gel filtration; forms two-stranded filaments
As to the kind of experiment: right-angle light scattering of ATP-induced polymerization; phosphate release. The settings on record: Mg-ATP 3 mM (polymerization) or 10 mM (phosphate release), 25 mM Tris pH 7.5, 100 mM KCl, 1 mM MgCl2, 1 mM DTT; nucleotide-binding pocket mutant.

The target in data set [3] is Alp7A (wild type, native, unlabelled) (Bacillus subtilis (plasmid pLS20)) (UniProt C7F6X5).
Data set [4] deals with the molecule itself. As to the kind of experiment: negative-stain electron microscopy; polymers formed with 3 mM ATP/Mg++, adsorbed to carbon-coated grids, 0.75% uranyl formate; buffer as for light scattering.

In the case of `Nc1ncnc2c1ncn2[C@@H]1O[C@H](COP(=O)(O)OP(=O)(O)OP(=O)(O)O)[C@@H](O)[C@H]1O` [ATP], on Alp7A [1], the “EnzChek phosphate release (ATPase on polymerization)” value was “phosphate dissociates rapidly from wild-type Alp7A polymers”. For the same molecule, the “right-angle light scattering of ATP-induced polymerization; phosphate release” value at Alp7A [2] was “addition of Mg-ATP to purified Alp7A-E180A induces formation of stable polymers”.
“Alp7A (wild type, native, unlabelled) (from UniProt C7F6X5 1-391) (natural protein)”: the concentration threshold of the specific ATPase activity (steady-state phosphate release) of Alp7A, taken as the critical concentration for elongation (ccE) in data set [3] came to 0.6 µM.

B1: Alp7A-E180A (hydrolysis-dead mutant, unlabelled) (natural protein, Bacillus subtilis (plasmid pLS20), UniProt C7F6X5 1-391, looked up)
chain: MNISRMNVDFGNSMYMNLIDGYFFELPTNVVEISKEAAEGKFTSIVEDPADLKDRLLVSTVIDETERYFLVGELAEPEVLGNQHIKKLHNKVESHIPYVTFLAATAYYQALKGKREDNEVTIEYFQTMLPIWLLKKLDKFSEMQKRMASKFLGTHQVKVLTLGLEKELTIKVEDAACRIASEVARWAIKKNFDLEDKDYAEQFKNYDVVFCDLGGGTDDLVLLPAGLKPPKSRDSFVSNTEAPFLAHLEKLRKEKLLEHFDSVRELEKFIYSNIGKTKMERRDGNTGQKFDLTDIIKKSLKEYTEIKIAQAENTFPAPKDKVYKYLYFGGVGEVLEESISVVTEERYGRDISESNHIVAEDARLLNLYGLEVLSRAEQVKKQANEKEAQSI
For B1, in data set [4], the binding result is “binds”.
